Experimental data published in patent publication US20100190755A1, “TETRACYCLINE COMPOUNDS FOR THE TREATMENT OF RHEUMATOID ARTHRITIS AND RELATED METHODS OF TREATMENT” (priority 2008, published 2010).
Values after ≈ are worked out from the molar mass of the structure shown.

What was measured:
[1] = system: E. coli ATCC25922 (tetracycline sensitive); assay: E. coli MIC, broth micro-dilution per CLSI guidelines (Table 3); format: cell-based; settings: for MIC: Escherichia coli, E. coli ATCC25922, cation-adjusted Mueller Hinton broth
[2] = system: Protein synthesis (E. coli S30 Extract System); assay: Protein synthesis inhibition, in vitro transcription/translation assay (E. coli S30 Extract System for Circular DNA); format: biochemical
[3] = Pharmacokinetics in rats after i.v. and oral dosing; format: in vivo; settings: rat; for bioavailability: male, CD/IGS, after oral dosing of 5 mg/kg, read-out: PK Parameters (Rat) % F, fraction of absorption; for bioavailability / half-life: plasma; for half-life: male CD/IGS rats, 1 mg/kg i.v. or 5 mg/kg oral, read-out: PK Parameters (Rat) T1/2 (converted)
Procedure: Pre-cannulated (jugular vein and carotid artery for i.v. group and carotid artery for oral group) male CD/IGS rats (approximately 250 g) were used. Rats were fasted overnight prior to dosing with access to food restored 2 hours after dosing. Rats were administered with approximately 0.25 mL compound (1 mg/kg dose) for i.v. route (via jugular vein over 20 seconds) or 0.5 mL solution (5 mg/kg dose) orally. Blood (300 μL) was collected in tubes with EDTA anticoagulant at various time points, centrifuged and plasma collected and stored frozen at −20° C. Animals were euthanized by CO2 following the final blood collection. Plasma was extracted (0.1% trifluoroacetic acid in 67% acetonitrile/33% water) and levels of compound quantified by HPLC/MS against a standard curve.

[4] = system: collagen-induced arthritis (CIA) in male DBA/1 mice; assay: Murine collagen-induced arthritis (CIA) model, Example 2; format: in vivo, mouse; settings: for % Inhibition (Change in Paw Thickness) AVG / % Inhibition (Clinical Score) AVG / Change in Paw Thickness (mm) Mean: 25 mg/kg/day i.p.; for % Inhibition (Change in Paw Thickness) AVG / % Inhibition (Clinical Score) AVG: dosed after disease onset; for EC50 in inflammation suppression in CIA mice: i.p. daily; for Effects on reduction of paw swelling and clinical score compared to either minocycline or methotrexate / joint inflammation when administered after disease onset: murine CIA model
Procedure: Four non-antibacterial analogues of minocycline (J, W, AF and AT) were synthesized and tested in the murine model of the disease, collagen-induced arthritis (CIA) (See supra). Male DBA/1 mice were immunized intradermally with 200 μg of bovine type II collagen and boosted with collagen three weeks later. Minocycline and four non-antibacterial minocycline derivatives were administered i.p. beginning after disease onset. Paw thickness was measured and animals were scored daily.
(§1) • 1. Male DBA/1 mice were immunized i.d. with an emulsion of 200 μg bovine type II collagen in Complete Freund's Adjuvant. • 2. On day 21, mice received i.d. boost of 100 μg collagen in Incomplete Freund's Adjuvant • 3. Compounds were administered i.p. daily for 7 days starting from disease onset (day 3-4 after boost). • 4. Foot swelling was measured by an engineering micrometer and disease severity was scored accordingly (1, erythema and mild swelling confined to the tarsal or ankle joint; 2, erythema and mild swelling extending from the ankle to the mid-foot; 3, erythema and moderate swelling extending from the ankle to the metatarsal joints; 4, erythema and severe swelling encompassing the ankle, foot, and digits). • 5. Change (Δ) of paw thickness=sum of paw thickness from 4 paws of a mouse (experimental)−sum of baseline paw thickness from 4 paws of the same mouse. • 6. % inhibition=cumulative A paw thickness (disease group−compound-treated group)/cumulative A paw thickness (disease group)

MMP-9 = assay: Paw extract biomarker ELISA, CIA mice: MMP-9; format: in vivo, mouse; settings: paw extracts from CIA mice
Procedure: as §1
(§2) • 1. Paws were collected from mice after 5-7 days of dosing and dissected free of skin. • 2. The paws were then homogenized in ice-cold PBS (2 ml/4 paws/mouse) containing 1× protease inhibitor using a Polytron homogenizer. • 3. Debris and particles were removed from the homogenized samples by centrifugation. • 4. Liquid layers were collected for MMP-9, IL-1, IL-6, RANKL, MCP-1, and TNFα analysis using ELISA kits from R & D System.

IL-1 = assay: Paw extract biomarker ELISA, CIA mice: IL-1; format: in vivo, mouse; settings: paw extracts from CIA mice
Procedure: as §1, §2

IL-6 = assay: Paw extract biomarker ELISA, CIA mice: IL-6; format: in vivo, mouse; settings: paw extracts from CIA mice
Procedure: as §1, §2

MCP-1 = assay: Paw extract biomarker ELISA, CIA mice: MCP-1; format: in vivo, mouse; settings: paw extracts from CIA mice
Procedure: as §1, §2

RANKL = assay: Paw extract biomarker ELISA, CIA mice: RANKL; format: in vivo, mouse; settings: paw extracts from CIA mice
Procedure: as §1, §2

[5] = system: cytokines (IL-1, IL-6, RANKL and MCP-1) and a matrix metalloproteinase (MMP-9); assay: Paw extract biomarker ELISA, CIA mice: whole panel (statements in words); format: in vivo, mouse
Procedure: as §1, §2

S. aureus RN450 = assay: Antibacterial activity MIC, Gram+ (Table 9); format: cell-based; settings: Staphylococcus aureus, CAMHB, 35° C., approximately 18 hr
Procedure, shortened: (§3)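 Broth microdilution in cation-adjusted Mueller Hinton broth, compound dissolved in DMSO and serially diluted from 200 μg/ml down to 0.098 μg/ml. Log-phase inoculum at final ~5×10^5 CFU/ml, incubated ~18 h at 35 °C in ambient air; MIC is the lowest concentration inhibiting growth, read by plate reader or visually.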

E. coli 25922 = assay: Antibacterial activity MIC, Gram- (Table 9); format: cell-based; settings: Escherichia coli, CAMHB, 35° C., approximately 18 hr
Procedure, shortened: as §3

[6] = system: collagen-induced arthritis (CIA) in male DBA/1 mice; assay: CIA model, Example 3 (cumulative scores vs untreated controls); format: in vivo; settings: Mus musculus
Procedure, shortened: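 Immunised intradermally with bovine type II collagen in CFA and boosted at day 21 in IFA. After onset, tetracycline derivatives given daily i.p. or orally for 8 to 15 days. Daily visual inflammation scores (0–4 scale) and micrometer paw thickness summed into cumulative scores.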

| Compound | anti-bacterial activity compared to minocycline [1] | MIC [1] [µg/mL] | IC50 [2] [µM] | bioavailability [3] [%] | bio-available after oral dosing in rats [3] | half-life [3] [h] | % Inhibition (Change in Paw Thickness) AVG [4] [%] | % Inhibition (Clinical Score) AVG [4] [%] | EC50 in inflammation suppression in CIA mice [4] [mg/kg/day i.p.] | Change in Paw Thickness (mm) Mean ([4]; day 1 of dosing) [mm] | Change in Paw Thickness (mm) Mean ([4]; day 2 of dosing) [mm] | Change in Paw Thickness (mm) Mean ([4]; day 3 of dosing) [mm] | Change in Paw Thickness (mm) Mean ([4]; day 4 of dosing) [mm] | Change in Paw Thickness (mm) Mean ([4]; day 5 of dosing) [mm] | Change in Paw Thickness (mm) Mean ([4]; day 6 of dosing) [mm] | Change in Paw Thickness (mm) Mean ([4]; day 7 of dosing) [mm] | Change in Paw Thickness (mm) Mean ([4]; day 8 of dosing) [mm] | Effects on reduction of paw swelling and clinical score compared to either minocycline or methotrexate [4] | joint inflammation when administered after disease onset [4] | Percent level of Biomarker Tissue [c] Compared to Untreated Control, MMP-9 AVG (MMP-9) [%] | other results |
| --- | --- | --- | --- | --- | --- | --- | --- | --- | --- | --- | --- | --- | --- | --- | --- | --- | --- | --- | --- | --- | --- |
| CCc1cc(N(C)C)c2c(c1O)C(=O)C1=C(O)[C@]3(O)C(=O)C(C(N)=O)=C(O)C[C@@H]3C[C@@H]1C2 [Compound AF] | no anti-bacterial activity | > 64 | > 100 | 77 | bio-available | 3.1 | 62 | 42 | 12 | 0.55 | 0.39 | 0.61 | 0.49 | 0.46 | 0.38 | 0.42 | 0.54 | greater | inhibited joint inflammation | 113 | Percent level of Biomarker Tissue [c] Compared to Untreated Control, IL-1 AVG (IL-1): 55%; Percent level of Biomarker Tissue [c] Compared to Untreated Control, IL-6 AVG (IL-6): 35%; Percent level of Biomarker Tissue [c] Compared to Untreated Control, MCP-1 AVG (MCP-1): 43%; Percent level of Biomarker Tissue [c] Compared to Untreated Control, RANKL AVG (RANKL): 38%; inhibition of inflammatory/osteoclastic cytokines (MMP-9, IL-1, IL-6, MCP-1, RANKL) in vivo [5]: better than minocycline; MIC (S. aureus RN450): 1 µg/mL (≈ 2.26 µM); MIC (E. coli 25922): > 64 µg/mL; inhibition in vivo at 6 mg/kg [6]: 28%; inhibition in vivo at 12 mg/kg [6]: 49%; inhibition in vivo at 35 mg/kg ([6]; Dose 35 mg/kg): 62% |
| CC(C)c1cc(N(C)C)c2c(c1O)C(=O)C1=C(O)[C@]3(O)C(=O)C(C(N)=O)=C(O)[C@@H](N(C)C)[C@@H]3C[C@@H]1C2 [Compound J] | no anti-bacterial activity | > 64 | > 100 | 65 | bio-available | 2.5 | 71 | 45 | 14 | 0.47 | 0.39 | 0.33 | 0.48 | 0.36 | 0.37 | 0.50 | 0.65 | greater | inhibited joint inflammation | 68 | Percent level of Biomarker Tissue [c] Compared to Untreated Control, IL-1 AVG (IL-1): 52%; Percent level of Biomarker Tissue [c] Compared to Untreated Control, IL-6 AVG (IL-6): 68%; Percent level of Biomarker Tissue [c] Compared to Untreated Control, MCP-1 AVG (MCP-1): 60%; Percent level of Biomarker Tissue [c] Compared to Untreated Control, RANKL AVG (RANKL): 32%; inhibition of inflammatory/osteoclastic cytokines (MMP-9, IL-1, IL-6, MCP-1, RANKL) in vivo [5]: better than minocycline; MIC (S. aureus RN450): 2 µg/mL (≈ 4 µM); MIC (E. coli 25922): > 64 µg/mL; inhibition in vivo at 12 mg/kg [6]: 34%; inhibition in vivo at 25 mg/kg [6]: 71% |
| COC(=O)c1cc(N(C)C)c2c(c1O)C(=O)C1=C(O)[C@]3(O)C(=O)C(C(N)=O)=C(O)C[C@@H]3C[C@@H]1C2 [Compound W] | no anti-bacterial activity | > 64 | > 100 | 52 | bio-available | 3 | 60 | 40 | 20 | 0.71 | 0.41 | 0.46 | 0.56 | 0.51 | 0.45 | 0.35 | 0.60 | greater | inhibited joint inflammation | 72 | Percent level of Biomarker Tissue [c] Compared to Untreated Control, IL-1 AVG (IL-1): 32%; Percent level of Biomarker Tissue [c] Compared to Untreated Control, IL-6 AVG (IL-6): 28%; Percent level of Biomarker Tissue [c] Compared to Untreated Control, MCP-1 AVG (MCP-1): 28%; Percent level of Biomarker Tissue [c] Compared to Untreated Control, RANKL AVG (RANKL): 27%; inhibition of inflammatory/osteoclastic cytokines (MMP-9, IL-1, IL-6, MCP-1, RANKL) in vivo [5]: better than minocycline; MIC (S. aureus RN450): 4 µg/mL (≈ 8.47 µM); MIC (E. coli 25922): > 64 µg/mL; inhibition in vivo at 6 mg/kg [6]: 25%; inhibition in vivo at 12 mg/kg [6]: 32%; inhibition in vivo at 25 mg/kg [6]: 60% |
